Earlier results on 1 molecule are cited in patent US10052328B2, “Therapeutic composition to treat lesions caused by Herpes Simplex Virus” (G2L TOUCH, INC., priority 2009, dated 2018).

For the data set, the system named is cold sore (labial herpes simplex). To be noted: commercial topical cream, versus untreated cold sores.

For the molecule `Nc1nc(=O)c2ncn(CCC(CO)CO)c2[nH]1` [PCV, 2-amino-9-[4-hydroxy-3-(hydroxymethyl)butyl]-6,9-dihydro-3H-purin-6-one], the “reduction of the duration of a cold sore / lesion, on average” value is on record as 0.5 days.
